Reference: patent US20080026065A1, “Powdered Compositions Of Sensitive Active Materials In An At Least Partially Amorphous State” (priority 2004, published 2008)

Assay: Moisture uptake at 75% relative humidity, gravimetric
Assay type: physicochemical
Conditions: freeze dried matrices, 75% RH atmosphere, 8 hours; for moisture uptake (percentage weight increase): FIG. 1
Description: Following lyophilisation the resultant freeze dried matrices were exposed to a 75% RH (Relative Humidity) atmosphere for a period of 8 hours. At intervals over this period, moisture uptake of each sample was measured gravimetrically and calculated as a percentage weight increase of the sample.

| Structure (SMILES) | moisture uptake (percentage weight increase) | physical quality of sample after moisture exposure |
| --- | --- | --- |
| OC[C@@H](O)[C@@H](O)[C@H](O)[C@H](O)CO [mannitol] | no appreciable moisture uptake |  |
| OC[C@H]1O[C@H](O[C@H]2O[C@H](CO)[C@@H](O)[C@H](O)[C@H]2O)[C@H](O)[C@@H](O)[C@@H]1O [trehalose] | significant moisture uptake | deterioration in the physical quality |
